The source of these data is patent US20070061899A1, “Transgenic mammal with constitutive, tissue-specific cytokine expression and use as a cancer model” (THE TRUSTEES OF COLUMBIA UNIVERSITY IN THE CITY OF NEW YORK, priority 2005, published 2007).

In assay [1] the test system is fibrosarcoma. Conditions: control mice, systemic treatments; cited from earlier work.
For assay [2], the system named is B16 melanoma. As to conditions: murine B16 model, cited from earlier work.
Assay [3] has as its system IL-1β mice and C57BL/6J mice infected with Helicobacter felis. The assay can be described thus: IL-1RA treatment of bone marrow transplanted, Helicobacter felis infected mice. It is filed as in vivo, mouse. Conditions: hIL-1RA by osmotic minipump, 100 mg/kg/day for 30 days; eight weeks after H. felis infection. The source says:
Bone marrow transplantation, and Helicobacter felis infection and IL-RA treatment. Bone marrow was isolated from the femurs and tibias of 6-8 week old C57BL/6-TgN [ACThEGFP] (GFP) mice. Total bone marrow was washed, triturated using a 20 gauge needle and passed through a 40 sum nylon mesh cell strainer (Becton Dickson) to produce a single cell suspension in PBS. Recipient IL-β mice and C57BL/6J mice were irradiated with 900 rads from a cesium 137-gamma cell irradiator, reconstituted with 3×10^6 donor marrow cells via a single tail vein injection, and used for experiments after 2 weeks of recovery. The overall level of engraftment was 60-80% as assessed by analysis of β-galactosidase or GFP in peripheral leukocytes. Non-transplanted IL-β mice and C57BL/6 mice served as controls for all injury models. Helicobacter felis (strain 49179) was obtained from the […] (Rockville, Md.), grown as recommended and bacteria enumerated as previously described (Houghton 2004). Two weeks after transplantation, mice were infected by oral gavage with 1×10^7 colony forming units every other day for 3 days. […]
Single cell preparation and FACS analysis. […] All single cell suspensions were stained with FITC-labeled anti-CD34, PE-labeled […] as well as Cy5-labeled anti-CD3 and anti-B220 antibodies (Pharmingen) and analyzed using a FACScan™ flow cytometer. […]

Assay [4] concerns tumor development induced by IL-1. Conditions: release of 25 ng per day from microencapsulated cells, mice; cited from earlier work.
In assay [5] the test system is C57BL/6J mice and Balb/c mice. The assay can be described thus: Continuous infusion of IL-1β into mice (preliminary experiment). It counts as in vivo, mouse. As to conditions: continuous infusion (13 days).

As for “IL-1RA: IL-1 receptor antagonist; binds IL-1 receptor type I without transmitting an activation signal”, in assay [1], the fibrosarcoma growth entry is listed as “inhibited”. For the same molecule, in assay [2], the metastases entry is reported as “reduced” and the survival rates entry is “increased”. Also, in assay [3], the development of gastritis entry was “reduces”; the “mobilization of hematopoietic stem cells circulation and stomach tissues” value is reported as “reduces”. In addition, in assay [4], the angiogenesis entry was “reduced” and the tumor development entry is given as “inhibited”.

B1: IL-1β: proinflammatory pleiotropic cytokine, infused or injected into mice (protein, UniProt P10749 118-269, looked up)
Interleukin-1 beta: VPIRQLHYRLRDEQQKSLVLSDPYELKALHLNGQNINQQVIFSMSFVQGEPSNDKIPVALGLKGKNLYLSCVMKDGTPTLQLESVDPKQYPKKKMEKRFVFNKIEVKSKVEFESAEFPNWYISTSQAEHKPVFLGNNSGQDIIDFTMESVSS
On to B1, for which the liver metastasis result in assay [2] (intrasplenic injection) is given as “increased”. Besides, in assay [5], the gastric atrophy result is “caused gastric atrophy”.
